{
  "source": "patent US7365096B2",
  "about": "“Methods for selectively inhibiting Janus tyrosine kinase 3 (Jak3)” (Board of Regents, The University of Texas System, priority 2002, dated 2008)",
  "key": {"[1]": {"tested_on": "γc/Jak3-dependent PHA-activated human T cells", "assay": "Proliferation of PHA-activated human T cells ([3H]-thymidine)", "format": "cell-based", "details": "for proliferation of PHA-activated human T cells following stimulation with IL-2 (FIG. 7A): IL-2 stimulated", "procedure": "Cell culture and treatment. The rat T-cell line Nb2-11c, originally developed by Dr. Peter Gout (Vancouver, Canada), was grown in RPMI-1640 with 10% fetal calf serum (Intergen, cat. no. 1020-90), 2 mM L-glutamine, 5 mM HEPES, pH 7.3, and penicillin-streptomycin (50 IU/ml and 50 μg/ml, respectively), at 37° C./5% CO2. Freshly explanted normal human T lymphocytes purified by isocentrifugation (Ficoll®; EM Science, Gibbstown, N.J.) were phytohemagglutinin (PHA)-activated for 72 hours as previously described.^23 T lymphocytes were made quiescent by washing and incubating for 24 hours in RPMI-1640 medium containing 1% fetal calf serum before exposure to cytokines. […] The Mannich base 649641P (NC1153) was generously provided by Dr. Jonathan Dimmock College of Pharmacy, University of Saskatchewan, Saskatoon, Saskatchewan, Canada. All cells were then stimulated with 1 nM recombinant human IL-2 (Hoffman-LaRoche, Basel, Switzerland), IL4 or IL7 (PeproTech), or ovine prolactin (PRL) supplied by the National Hormone and Pituitary Program, National Institute of Diabetes, Digestive, and Kidney Disease (Bethesda, Md.), at 37° C. Cell pellets were frozen at −70° C.\nProliferation assays. Quiescent human primary T-cells, YT or rat Nb2-11c T-cells (5.0×10^4/well) were plated in flat-bottom, 96-well microtiter plates in 200 μl of quiescent media in the absence or presence of 1 nM IL-2, -4, -7 (PeproTech, Rock Hill, N.J.), or PRL. Next, cells were treated for 16 hours with the Mannich base drug and then pulsed for 4 hours with [^3H]-thymidine (0.5 μCi/200 μl) and harvested onto fiberglass filters. [^3H]-thymidine incorporation was analyzed by liquid scintillation counting as previously described,^23 or using standard techniques that are well known in the art."}, "[2]": {"tested_on": "T-cell proliferation mediated by TCGFs", "details": "cited from earlier work"}, "Jak3 [3]": {"target": "T1, Jak3 (Homo sapiens, UniProt P52333)", "T1 sequence (P52333 1-1124)": "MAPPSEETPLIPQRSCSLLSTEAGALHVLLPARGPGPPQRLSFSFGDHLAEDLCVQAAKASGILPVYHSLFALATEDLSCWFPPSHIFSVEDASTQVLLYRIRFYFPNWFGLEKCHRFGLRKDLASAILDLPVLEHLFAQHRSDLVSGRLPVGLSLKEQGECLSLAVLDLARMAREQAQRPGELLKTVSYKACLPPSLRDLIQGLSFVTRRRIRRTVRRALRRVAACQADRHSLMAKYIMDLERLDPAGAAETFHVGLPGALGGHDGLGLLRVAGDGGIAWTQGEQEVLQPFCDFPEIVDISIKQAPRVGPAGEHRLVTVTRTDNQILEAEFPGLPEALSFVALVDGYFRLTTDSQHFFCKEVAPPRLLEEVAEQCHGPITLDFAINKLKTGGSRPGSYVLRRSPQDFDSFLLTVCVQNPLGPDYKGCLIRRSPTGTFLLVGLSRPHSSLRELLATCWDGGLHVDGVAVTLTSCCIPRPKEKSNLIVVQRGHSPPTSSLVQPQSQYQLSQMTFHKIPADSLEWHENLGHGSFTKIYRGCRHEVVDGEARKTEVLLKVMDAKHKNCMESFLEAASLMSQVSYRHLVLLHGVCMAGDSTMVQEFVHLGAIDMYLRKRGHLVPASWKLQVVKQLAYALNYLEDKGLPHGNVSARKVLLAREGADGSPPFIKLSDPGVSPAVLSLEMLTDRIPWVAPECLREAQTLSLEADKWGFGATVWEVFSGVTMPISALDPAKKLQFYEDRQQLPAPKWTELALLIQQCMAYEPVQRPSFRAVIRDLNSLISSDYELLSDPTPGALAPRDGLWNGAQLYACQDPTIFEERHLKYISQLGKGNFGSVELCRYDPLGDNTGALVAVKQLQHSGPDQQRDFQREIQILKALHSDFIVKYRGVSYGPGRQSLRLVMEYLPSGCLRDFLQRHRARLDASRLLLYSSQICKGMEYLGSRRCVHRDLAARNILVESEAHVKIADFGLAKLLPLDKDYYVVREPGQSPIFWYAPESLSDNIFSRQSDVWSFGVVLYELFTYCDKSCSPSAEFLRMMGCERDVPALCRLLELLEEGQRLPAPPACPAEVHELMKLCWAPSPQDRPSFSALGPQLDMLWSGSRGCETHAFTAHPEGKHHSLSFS", "details": "cited from earlier work"}, "p56Lck": {"target": "p56Lck (Homo sapiens, UniProt P06239)", "sequence (P06239 whole entry, species assumed)": "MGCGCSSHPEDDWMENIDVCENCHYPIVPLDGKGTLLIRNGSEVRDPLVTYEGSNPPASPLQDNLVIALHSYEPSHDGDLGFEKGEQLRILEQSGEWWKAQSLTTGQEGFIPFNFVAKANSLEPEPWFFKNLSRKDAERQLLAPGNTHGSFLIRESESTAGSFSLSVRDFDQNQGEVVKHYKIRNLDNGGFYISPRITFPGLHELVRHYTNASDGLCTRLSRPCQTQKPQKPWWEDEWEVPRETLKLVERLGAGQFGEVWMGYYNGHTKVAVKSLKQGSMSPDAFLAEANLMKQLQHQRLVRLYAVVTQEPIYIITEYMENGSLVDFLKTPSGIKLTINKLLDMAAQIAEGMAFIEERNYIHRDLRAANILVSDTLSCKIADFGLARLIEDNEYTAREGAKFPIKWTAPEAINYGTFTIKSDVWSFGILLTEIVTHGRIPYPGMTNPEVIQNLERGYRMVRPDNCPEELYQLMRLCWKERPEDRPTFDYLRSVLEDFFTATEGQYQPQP", "details": "cited from earlier work"}, "Zap70": {"target": "T2, Zap70 (Homo sapiens, UniProt P43403)", "T2 sequence (P43403 1-619)": "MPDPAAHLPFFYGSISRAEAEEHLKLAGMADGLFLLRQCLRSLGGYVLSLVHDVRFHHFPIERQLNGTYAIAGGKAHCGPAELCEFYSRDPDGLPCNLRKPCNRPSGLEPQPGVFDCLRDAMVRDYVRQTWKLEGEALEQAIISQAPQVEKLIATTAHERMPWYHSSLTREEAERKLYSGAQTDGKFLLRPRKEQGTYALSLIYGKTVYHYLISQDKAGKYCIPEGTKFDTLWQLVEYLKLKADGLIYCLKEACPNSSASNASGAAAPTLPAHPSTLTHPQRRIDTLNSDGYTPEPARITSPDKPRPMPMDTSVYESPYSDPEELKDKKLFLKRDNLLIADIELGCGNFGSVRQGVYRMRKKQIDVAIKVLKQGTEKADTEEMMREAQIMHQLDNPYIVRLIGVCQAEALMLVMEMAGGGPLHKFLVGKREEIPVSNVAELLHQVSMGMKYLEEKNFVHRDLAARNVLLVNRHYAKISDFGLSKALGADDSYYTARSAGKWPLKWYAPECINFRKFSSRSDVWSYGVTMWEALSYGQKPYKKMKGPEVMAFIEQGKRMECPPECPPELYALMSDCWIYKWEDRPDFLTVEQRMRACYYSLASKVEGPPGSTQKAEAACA", "details": "cited from earlier work"}, "[4]": {"tested_on": "Jak3 mediated T-cell growth", "details": "cited from earlier work"}, "Jak3 [5]": {"target": "T1, Jak3", "details": "cited from earlier work", "remark": "listed apart in the source"}, "allograft": {"tested_on": "allograft", "details": "in vivo; cited from earlier work"}, "Lck": {"target": "Lck (Homo sapiens, UniProt P06239)", "sequence (P06239 whole entry, species assumed)": "as the sequence (P06239 whole entry, species assumed) above", "details": "cited from earlier work"}, "Lyn": {"target": "Lyn (Homo sapiens, UniProt P07948)", "sequence (P07948 whole entry, species assumed)": "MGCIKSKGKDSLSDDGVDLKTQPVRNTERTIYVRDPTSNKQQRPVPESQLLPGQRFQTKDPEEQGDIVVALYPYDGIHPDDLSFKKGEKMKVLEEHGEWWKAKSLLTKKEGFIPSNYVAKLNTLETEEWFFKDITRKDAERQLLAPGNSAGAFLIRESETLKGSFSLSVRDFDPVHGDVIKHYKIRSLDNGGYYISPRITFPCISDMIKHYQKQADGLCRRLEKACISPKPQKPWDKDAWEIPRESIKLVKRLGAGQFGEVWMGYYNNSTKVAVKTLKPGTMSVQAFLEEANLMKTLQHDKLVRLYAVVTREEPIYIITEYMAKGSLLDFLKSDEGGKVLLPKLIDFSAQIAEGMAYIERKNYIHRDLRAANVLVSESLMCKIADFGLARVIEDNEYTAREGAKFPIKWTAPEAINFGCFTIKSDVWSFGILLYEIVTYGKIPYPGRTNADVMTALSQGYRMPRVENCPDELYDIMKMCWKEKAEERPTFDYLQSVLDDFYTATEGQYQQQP", "details": "cited from earlier work"}, "Btk": {"target": "Btk (Homo sapiens, UniProt Q06187)", "sequence (Q06187 whole entry, species assumed)": "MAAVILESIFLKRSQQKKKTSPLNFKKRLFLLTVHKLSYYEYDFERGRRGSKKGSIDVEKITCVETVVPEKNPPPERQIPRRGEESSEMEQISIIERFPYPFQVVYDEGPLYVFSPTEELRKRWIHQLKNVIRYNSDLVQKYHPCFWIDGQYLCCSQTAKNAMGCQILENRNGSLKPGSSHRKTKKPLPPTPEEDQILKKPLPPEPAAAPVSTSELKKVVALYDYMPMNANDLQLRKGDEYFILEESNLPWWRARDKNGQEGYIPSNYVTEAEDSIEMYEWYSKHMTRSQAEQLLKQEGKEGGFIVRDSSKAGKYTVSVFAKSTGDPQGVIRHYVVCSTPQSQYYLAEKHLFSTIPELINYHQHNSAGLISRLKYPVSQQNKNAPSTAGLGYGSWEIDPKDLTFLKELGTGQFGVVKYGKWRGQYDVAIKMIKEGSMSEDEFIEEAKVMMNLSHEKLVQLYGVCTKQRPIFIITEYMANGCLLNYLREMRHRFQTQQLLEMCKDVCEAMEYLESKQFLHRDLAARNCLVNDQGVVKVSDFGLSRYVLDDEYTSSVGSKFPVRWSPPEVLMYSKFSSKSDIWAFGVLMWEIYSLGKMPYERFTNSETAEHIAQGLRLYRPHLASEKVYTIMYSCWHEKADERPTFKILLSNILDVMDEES", "details": "cited from earlier work"}, "Syk": {"target": "Syk (Homo sapiens, UniProt P43405)", "details": "cited from earlier work"}, "Src": {"target": "Src (Homo sapiens, UniProt P12931)", "sequence (P12931 whole entry, species assumed)": "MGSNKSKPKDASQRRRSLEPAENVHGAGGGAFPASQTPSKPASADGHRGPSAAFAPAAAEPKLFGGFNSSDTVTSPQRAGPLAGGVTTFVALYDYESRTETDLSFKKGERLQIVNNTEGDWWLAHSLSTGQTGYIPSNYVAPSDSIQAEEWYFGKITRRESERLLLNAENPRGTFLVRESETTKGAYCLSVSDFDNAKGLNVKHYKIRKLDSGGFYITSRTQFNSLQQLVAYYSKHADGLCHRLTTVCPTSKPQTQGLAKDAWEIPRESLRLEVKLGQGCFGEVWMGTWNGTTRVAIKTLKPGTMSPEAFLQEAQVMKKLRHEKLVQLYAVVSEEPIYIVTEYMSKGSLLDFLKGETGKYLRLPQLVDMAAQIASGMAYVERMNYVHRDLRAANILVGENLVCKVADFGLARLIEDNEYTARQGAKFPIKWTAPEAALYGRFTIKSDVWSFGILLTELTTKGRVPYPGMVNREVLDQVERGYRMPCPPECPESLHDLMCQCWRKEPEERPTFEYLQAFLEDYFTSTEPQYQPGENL", "details": "cited from earlier work"}, "Jak1": {"target": "Jak1 (Homo sapiens, UniProt P23458)", "sequence (P23458 whole entry, species assumed)": "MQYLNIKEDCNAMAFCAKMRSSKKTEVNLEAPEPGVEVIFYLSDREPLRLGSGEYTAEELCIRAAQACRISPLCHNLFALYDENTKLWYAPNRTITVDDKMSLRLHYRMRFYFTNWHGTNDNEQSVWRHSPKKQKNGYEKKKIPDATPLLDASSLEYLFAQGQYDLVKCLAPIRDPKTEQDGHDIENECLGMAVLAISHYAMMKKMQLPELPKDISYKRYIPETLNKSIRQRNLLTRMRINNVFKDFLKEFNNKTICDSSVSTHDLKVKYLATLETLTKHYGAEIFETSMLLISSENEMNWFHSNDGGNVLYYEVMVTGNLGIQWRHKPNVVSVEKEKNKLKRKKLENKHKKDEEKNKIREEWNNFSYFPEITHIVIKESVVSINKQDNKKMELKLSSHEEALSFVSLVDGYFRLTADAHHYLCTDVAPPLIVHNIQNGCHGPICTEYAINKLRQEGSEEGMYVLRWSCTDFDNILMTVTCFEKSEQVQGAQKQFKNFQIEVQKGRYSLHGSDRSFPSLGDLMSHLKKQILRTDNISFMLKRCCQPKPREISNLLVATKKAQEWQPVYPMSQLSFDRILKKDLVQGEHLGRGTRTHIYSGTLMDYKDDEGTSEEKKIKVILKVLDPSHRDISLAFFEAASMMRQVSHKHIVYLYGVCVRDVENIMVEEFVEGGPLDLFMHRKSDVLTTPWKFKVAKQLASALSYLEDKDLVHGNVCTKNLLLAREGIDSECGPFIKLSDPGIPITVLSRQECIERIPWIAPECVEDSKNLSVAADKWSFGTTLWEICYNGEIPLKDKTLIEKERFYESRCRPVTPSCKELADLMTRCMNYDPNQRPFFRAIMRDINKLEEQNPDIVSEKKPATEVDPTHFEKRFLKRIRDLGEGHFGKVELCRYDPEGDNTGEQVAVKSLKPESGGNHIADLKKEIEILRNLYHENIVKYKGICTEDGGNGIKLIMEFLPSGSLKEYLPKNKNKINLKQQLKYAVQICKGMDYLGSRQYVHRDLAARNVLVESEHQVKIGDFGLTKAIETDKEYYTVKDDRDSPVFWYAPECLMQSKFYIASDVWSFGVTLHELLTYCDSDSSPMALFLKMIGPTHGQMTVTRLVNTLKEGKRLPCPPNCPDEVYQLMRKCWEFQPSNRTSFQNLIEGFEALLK", "details": "cited from earlier work"}, "Tyk2": {"target": "Tyk2 (Homo sapiens, UniProt P29597)", "sequence (P29597 whole entry, species assumed)": "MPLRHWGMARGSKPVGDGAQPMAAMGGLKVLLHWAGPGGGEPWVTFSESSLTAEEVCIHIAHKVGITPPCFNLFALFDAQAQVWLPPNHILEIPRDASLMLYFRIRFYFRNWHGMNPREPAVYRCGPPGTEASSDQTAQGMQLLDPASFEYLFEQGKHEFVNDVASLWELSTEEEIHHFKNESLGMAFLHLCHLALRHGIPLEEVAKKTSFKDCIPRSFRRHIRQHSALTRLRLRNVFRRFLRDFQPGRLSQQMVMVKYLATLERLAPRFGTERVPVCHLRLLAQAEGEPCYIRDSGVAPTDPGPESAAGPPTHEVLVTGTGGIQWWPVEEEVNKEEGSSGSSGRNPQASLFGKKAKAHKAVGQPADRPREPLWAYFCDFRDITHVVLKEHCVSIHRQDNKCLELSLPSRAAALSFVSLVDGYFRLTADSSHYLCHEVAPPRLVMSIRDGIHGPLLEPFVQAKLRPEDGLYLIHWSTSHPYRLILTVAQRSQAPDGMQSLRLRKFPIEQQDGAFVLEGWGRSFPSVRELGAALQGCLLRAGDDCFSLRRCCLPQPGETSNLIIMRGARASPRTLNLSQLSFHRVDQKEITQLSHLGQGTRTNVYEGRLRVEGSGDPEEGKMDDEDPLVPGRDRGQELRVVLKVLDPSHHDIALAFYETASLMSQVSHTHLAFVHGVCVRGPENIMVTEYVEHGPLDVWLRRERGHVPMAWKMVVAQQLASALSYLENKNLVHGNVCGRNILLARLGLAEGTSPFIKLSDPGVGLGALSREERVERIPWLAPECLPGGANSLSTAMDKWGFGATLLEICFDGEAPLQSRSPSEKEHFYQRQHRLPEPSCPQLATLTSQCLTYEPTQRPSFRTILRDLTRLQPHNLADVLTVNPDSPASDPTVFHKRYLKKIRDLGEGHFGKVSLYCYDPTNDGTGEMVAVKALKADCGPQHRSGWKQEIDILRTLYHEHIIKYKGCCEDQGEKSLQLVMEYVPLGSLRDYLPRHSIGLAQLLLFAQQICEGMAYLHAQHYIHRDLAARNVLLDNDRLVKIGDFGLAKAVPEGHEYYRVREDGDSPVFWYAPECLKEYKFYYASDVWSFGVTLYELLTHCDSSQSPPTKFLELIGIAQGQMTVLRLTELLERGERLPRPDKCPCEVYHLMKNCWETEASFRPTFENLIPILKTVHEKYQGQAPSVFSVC", "details": "cited from earlier work"}, "Jak": {"tested_on": "Jak", "details": "cited from earlier work"}, "[6]": {"tested_on": "graft infiltrating mononuclear cells (GICs)", "details": "rat, in vivo; cited from earlier work"}, "[7]": {"details": "rat, in vivo"}},
  "data": [
    {"smiles": "CC(=O)Oc1ccc2cc(-c3ccccc3OC(C)=O)c(=O)oc2c1", "note": "[compound 673137]", "values": [
      {"measurement": "proliferation of PHA-activated human T cells following stimulation with IL-2 (FIG. 7A)", "setting": "[1]", "result": "blocked"}
    ]},
    {"smiles": "CCCCCCCCCCCC1C=C/C(=C/c2[nH]c(-c3ccc[nH]3)cc2OCc2ccccc2)N1.Cl", "note": "(stereo not drawn) [PNU156804]", "values": [
      {"measurement": "IC50", "setting": "[1]; Homo sapiens, IL-2 driven T-cell growth, 16 hours drug, [3H]-thymidine, read-out: IC50, disrupting cell growth", "result": "~10", "unit": "µM"},
      {"measurement": "T-cell proliferation mediated by TCGFs", "setting": "[2]", "result": "competent to inhibit"},
      {"measurement": "Jak3 autokinase activity", "setting": "Jak3 [3]", "result": "competent to inhibit"},
      {"measurement": "effect on p56Lck", "setting": "p56Lck", "result": "neither of those two agents affects"},
      {"measurement": "effect on Zap70", "setting": "Zap70", "result": "neither of those two agents affects"},
      {"measurement": "inhibition of Jak3 mediated T-cell growth by IL-2 compared to prolactin (Jak2)", "setting": "[4]", "result": "greater specificity"},
      {"measurement": "Jak3 autophosphorylation as compared with Jak2", "setting": "Jak3 [5]", "result": "preferentially inhibited"},
      {"measurement": "allograft survival", "setting": "allograft", "result": "prolongs allograft survival"},
      {"measurement": "interaction with CsA", "setting": "allograft", "result": "synergistically"},
      {"measurement": "interaction with RAPA", "setting": "allograft", "result": "additively"}
    ]},
    {"smiles": "N#C/C(=C\\c1ccc(O)c(O)c1)C(=O)NCc1ccccc1", "note": "[AG-490]", "values": [
      {"measurement": "T-cell proliferation mediated by TCGFs", "setting": "[2]", "result": "competent to inhibit"},
      {"measurement": "Jak3 autokinase activity", "setting": "Jak3 [3]", "result": "competent to inhibit"},
      {"measurement": "effect on p56Lck", "setting": "p56Lck", "result": "neither of those two agents affects"},
      {"measurement": "effect on Zap70", "setting": "Zap70", "result": "neither of those two agents affects"},
      {"measurement": "inhibition of Lck", "setting": "Lck", "result": "does not inhibit"},
      {"measurement": "inhibition of Lyn", "setting": "Lyn", "result": "does not inhibit"},
      {"measurement": "inhibition of Btk", "setting": "Btk", "result": "does not inhibit"},
      {"measurement": "inhibition of Syk", "setting": "Syk", "result": "does not inhibit"},
      {"measurement": "inhibition of Src", "setting": "Src", "result": "does not inhibit"},
      {"measurement": "inhibition of Jak1", "setting": "Jak1", "result": "does not inhibit"},
      {"measurement": "inhibition of Tyk2", "setting": "Tyk2", "result": "does not inhibit"},
      {"measurement": "effects on closest related family member Jak", "setting": "Jak", "result": "exert similar effects"},
      {"measurement": "IL2Rα expression (ribonuclease protection assays)", "setting": "[6]", "result": "failed to affect"},
      {"measurement": "Stat5a/b DNA binding of ex vivo IL-2 stimulated GICs", "setting": "[6]", "result": "reduced"},
      {"measurement": "graft infiltration of mononuclear cells (GICs)", "setting": "[6]", "result": "reduced"}
    ]},
    {"smiles": "CC1(C)c2ccccc2N2O[C@@H]3C(=O)N(c4ccccc4)C(=O)[C@@H]3C21c1ccccc1", "note": "(stereo partly drawn) [compound 643423]", "values": [
      {"measurement": "proliferation of PHA-activated human T cells following stimulation with IL-2 (FIG. 7A)", "setting": "[1]", "result": "blocked"}
    ]},
    {"smiles": "Cc1oc2c(c1C)S(=O)(=O)C(C#N)C(c1ccccc1)N2", "note": "(stereo not drawn) [compound 693812]", "values": [
      {"measurement": "proliferation of PHA-activated human T cells following stimulation with IL-2 (FIG. 7A)", "setting": "[1]", "result": "blocked"}
    ]},
    {"smiles": "CCCCCCCC(=O)OCC(C[As](=O)(O)O)OC(=O)CCCCCCC", "note": "(stereo not drawn) [compound 655906]", "values": [
      {"measurement": "proliferation of PHA-activated human T cells following stimulation with IL-2 (FIG. 7A)", "setting": "[1]", "result": "blocked"}
    ]},
    {"smiles": "COc1cc(C2C(C(=O)Nc3ccc(Cl)c(Cl)c3)=C(C)NC(C)=C2C(=O)Nc2ccc(Cl)c(Cl)c2)ccc1O", "note": "[compound 637712]", "values": [
      {"measurement": "proliferation of PHA-activated human T cells following stimulation with IL-2 (FIG. 7A)", "setting": "[1]", "result": "blocked"}
    ]},
    {"smiles": "CO[C@H]1C[C@@H]2CC[C@@H](C)[C@@](O)(O2)C(=O)C(=O)N2CCCC[C@H]2C(=O)O[C@H]([C@H](C)C[C@@H]2CC[C@@H](O)[C@H](OC)C2)CC(=O)[C@H](C)/C=C(\\C)[C@@H](O)[C@@H](OC)C(=O)[C@H](C)C[C@H](C)/C=C/C=C/C=C/1C", "note": "[RAPA, rapamycin, reference compound]", "values": [
      {"measurement": "peripheral blood counts (PBC)", "setting": "[7]", "result": "reduced PBC compared to untreated rats, in contrast to SRL"}
    ]},
    {"smiles": "N#CCCN(CCC#N)c1ccc(C(Sc2ccccc2)C(NC(=O)c2cc([N+](=O)[O-])ccc2Cl)C(=O)Sc2ccccc2)cc1", "note": "(stereo not drawn) [compound 640674]", "values": [
      {"measurement": "proliferation of PHA-activated human T cells following stimulation with IL-2 (FIG. 7A)", "setting": "[1]", "result": "blocked"}
    ]},
    {"smiles": "O=C1c2ccccc2C(=O)[C@@]23O[C@@]12C1(Oc2cccc4cccc(c24)O1)[C@@H]1O[C@@H]1[C@@H]3O", "note": "[compound 683332]", "values": [
      {"measurement": "proliferation of PHA-activated human T cells following stimulation with IL-2 (FIG. 7A)", "setting": "[1]", "result": "blocked"}
    ]}
  ]
}
